The supplement of paper PMC10307832

Tests used:
Assay in all cases: relative viability (nuclei count vs DMSO), 5 days (fraction); higher = more cells survive
Indole-3-carbinol = compound: OCc1c[nH]c2ccccc12 [Indole-3-carbinol]
How it was run: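 Viability was read as treated-well nuclei divided by vehicle-well nuclei, using the median across plates. Lung cancer cell lines in 1536-well plates were kept overnight at 37 °C, pinned with five √10-spaced library-drug doses, and after 5 days were Hoechst-stained, imaged at 4× and counted in MetaXpress. Plates passed only with control CV below 25% and at least one doubling.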

[1] = compound: OCc1c[nH]c2ccccc12 [Indole-3-carbinol] + Cc1nc(NC(=O)N2CCC[C@H]2C(N)=O)sc1-c1ccnc(C(C)(C)C(F)(F)F)c1 [Alpelisib] (partner 2 µM)
How it was run: (§1)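 Relative viability equals treated-well nuclei counts divided by vehicle-well nuclei counts. Counts came from 4× images of lung cancer cell lines grown in 1536-well plates for 5 days after pin-tool dosing on the day after seeding. Dosing used one drug alone or a fixed anchor-drug dose plus five library-drug doses (not always all listed) in √10 steps, and values are medians of duplicate plates.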

[2] = compound: OCc1c[nH]c2ccccc12 [Indole-3-carbinol] + C[C@@H](Oc1cc(-c2cnn(C3CCNCC3)c2)cnc1N)c1c(Cl)ccc(F)c1Cl [Crizotinib] (partner 1 µM)
How it was run: as §1

[3] = compound: OCc1c[nH]c2ccccc12 [Indole-3-carbinol] + Cc1nc(Nc2ncc(C(=O)Nc3c(C)cccc3Cl)s2)cc(N2CCN(CCO)CC2)n1 [Dasatinib] (partner 0.075 µM)
How it was run: as §1

[4] = compound: OCc1c[nH]c2ccccc12 [Indole-3-carbinol] + O=C(c1cc(Cc2n[nH]c(=O)c3ccccc23)ccc1F)N1CCN(C(=O)C2CC2)CC1 [Olaparib] (partner 8 µM)
How it was run: as §1

| Cell Line | relative viability (Indole-3-carbinol; 0.253 µM) | relative viability (Indole-3-carbinol; 0.8 µM) | relative viability (Indole-3-carbinol; 2.53 µM) | relative viability (Indole-3-carbinol; 8 µM) | relative viability ([1]; first compound 0.253 µM) | relative viability ([1]; first compound 0.8 µM) | relative viability ([1]; first compound 2.53 µM) | relative viability ([1]; first compound 8 µM) | relative viability ([2]; first compound 0.253 µM) | relative viability ([2]; first compound 2.53 µM) | relative viability ([2]; first compound 8 µM) | relative viability ([3]; first compound 0.253 µM) | relative viability ([3]; first compound 0.8 µM) | relative viability ([3]; first compound 2.53 µM) | relative viability ([3]; first compound 8 µM) | relative viability ([4]; first compound 0.253 µM) | relative viability ([4]; first compound 0.8 µM) | relative viability ([4]; first compound 2.53 µM) | relative viability ([4]; first compound 8 µM) | relative viability ([2]; first compound 0.8 µM) |
| --- | --- | --- | --- | --- | --- | --- | --- | --- | --- | --- | --- | --- | --- | --- | --- | --- | --- | --- | --- | --- |
| NCI-H661 | 0.957 | 0.904 | 1.03 | 0.988 | 0.793 | 0.502 | 0.74 | 0.594 | 1.05 | 1.16 | 0.977 | 0.961 | 0.827 | 0.819 | 0.917 | 0.775 | 0.771 | 0.866 | 0.742 |  |
| NCI-H727 | 0.963 | 0.943 | 0.969 | 1.05 | 0.583 | 0.562 | 0.535 | 0.603 | 0.795 | 0.906 | 0.832 | 0.365 | 0.408 | 0.294 | 0.306 | 0.616 | 0.694 | 0.657 | 0.634 | 1.05 |
| NCI-H838 | 1.01 | 0.935 | 0.98 | 0.935 | 1.04 | 1.05 | 1.01 | 0.975 | 0.972 | 0.97 | 0.828 | 0.27 | 0.31 | 0.297 | 0.295 | 0.856 | 0.85 | 0.75 | 0.704 | 0.717 |
| NCI-H1355 | 1 | 1.11 | 0.97 | 0.961 | 0.809 | 0.875 | 0.766 | 0.672 | 1.17 | 0.971 | 1.06 | 0.677 | 0.886 | 0.672 | 0.737 | 0.782 | 0.77 | 0.772 | 0.699 | 1.08 |
| NCI-H1437 | 1.01 | 1.01 | 0.992 | 0.945 | 0.928 | 1.04 | 0.937 | 0.811 | 0.959 | 0.943 | 0.9 | 0.386 | 0.445 | 0.35 | 0.541 | 0.65 | 0.675 | 0.639 | 0.619 | 1.03 |
| NCI-H1651 | 0.994 | 0.97 | 1.05 | 0.945 | 0.744 | 0.97 | 0.954 | 0.895 | 0.766 | 0.917 | 0.886 | 0.412 | 0.387 | 0.443 | 0.368 | 0.195 | 0.203 | 0.161 | 0.175 | 0.841 |
| NCI-H1666 | 0.998 | 1.04 | 0.961 | 0.998 | 0.804 | 0.998 | 0.906 | 0.916 | 1.11 | 1.42 | 0.892 | 0.898 | 0.835 | 0.886 | 0.805 | 0.803 | 0.731 | 0.766 | 0.728 | 0.994 |
| NCI-H1734 | 0.997 | 0.866 | 0.973 | 0.932 | 0.692 | 0.725 | 0.719 | 0.674 | 0.72 | 0.637 | 0.632 | 0.441 | 0.458 | 0.542 | 0.399 | 0.61 | 0.619 | 0.613 | 0.58 | 0.777 |
